Assays:
Format in all cases: biochemical
[1] = biological target: T1, MMP-1 (Homo sapiens, UniProt P03956); assay: In vitro MMP-1 inhibition test; conditions: human MMP-1
T1 construct: purchased R&D Systems 901-MP
T1 sequence (P03956 100-469): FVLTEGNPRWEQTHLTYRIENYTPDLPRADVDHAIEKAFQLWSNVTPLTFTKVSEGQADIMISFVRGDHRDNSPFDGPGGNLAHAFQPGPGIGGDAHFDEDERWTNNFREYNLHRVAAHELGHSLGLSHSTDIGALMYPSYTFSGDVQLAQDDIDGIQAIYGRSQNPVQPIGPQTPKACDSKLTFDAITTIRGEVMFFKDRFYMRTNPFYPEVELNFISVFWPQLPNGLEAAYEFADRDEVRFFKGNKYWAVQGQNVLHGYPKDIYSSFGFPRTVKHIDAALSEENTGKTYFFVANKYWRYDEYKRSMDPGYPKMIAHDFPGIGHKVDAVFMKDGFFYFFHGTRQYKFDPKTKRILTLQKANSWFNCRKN
Excerpt: (§1) The MMP-mediated amidolytic cleavage of a suitable peptide substrate leads to an increase in fluorescent light here too. The signal intensity of the fluorescent light is directly proportional to the enzyme activity. The active concentration of a test compound at which half the enzyme is inhibited (50% signal intensity of the fluorescent light) is reported as the IC50 value.
(§2) Recombinant MMP-1 (R&D Systems, 901-MP) is chemically activated in accordance with the manufacturer's instructions using APMA. 1 μl of the test compound to be analysed (as a solution in DMSO, suitable concentrations e.g. 1 nM to 30 μM) is pipetted into 24 μl of activated enzyme (final concentration e.g. 2 nM) in reaction buffer (50 mM Tris/HCl pH 7.5, 10 mM CaCl2, 150 mM NaCl, 0.05% Brij®-35) in a white 384-hole microtiter plate (MTP). The enzymatic reaction is started by adding the intramolecularly quenched Mca-Pro-Leu-Gly-Leu-Dpa(Dnp)-Ala-Arg-NH2 substrate (final concentration e.g. 10 μM; R&D Systems, ES-001), so as to result in a total test volume of 50 μl. The course of the MMP-1 reaction is measured by measuring the fluorescence intensity (excitation 320 nm, emission 410 nm) over a suitable period of time (e.g. over 120 min at a temperature of 32° C.).

[2] = biological target: T2, MMP-10 (Homo sapiens, UniProt P09238); assay: In vitro MMP-10 inhibition test; conditions: human MMP-10
T2 construct: purchased R&D Systems 910-MP
Excerpt: as §1
as §2, with “MMP-10” for “MMP-1”, “910-MP)” for “901-MP)”, “Mca-Arg-Pro-Lys-Pro-Val-Glu-Nval-Trp-Arg-Lys(Dnp)-NH2” for “Mca-Pro-Leu-Gly-Leu-Dpa(Dnp)-Ala-Arg-NH2”, “ES-002),” for “ES-001),”

[3] = biological target: T3, MMP-13 (Homo sapiens, UniProt P45452); assay: In vitro MMP-13 inhibition test; conditions: human MMP-13
T3 construct: purchased R&D Systems 511-MP
Excerpt: as §1
as §2, with “Recombinant MMP-13” for “Recombinant MMP-1”, “Systems, 511-MP)” for “Systems, 901-MP)”, “e.g. 0.1” for “e.g. 2”, “the MMP-13” for “the MMP-1”

[4] = biological target: T4, MMP-16 (Homo sapiens, UniProt P51512); assay: In vitro MMP-16 inhibition test; conditions: human MMP-16
T4 construct: purchased R&D Systems 1785-MP
Excerpt: as §1
Recombinant MMP-16 (R&D Systems, 1785-MP) is enzymatically activated in accordance with the manufacturer's instructions using recombinant furin (R&D Systems, 1503-SE). 1 μl of the test compound to be analysed (as a solution in DMSO, suitable concentrations e.g. 1 nM to 30 μM) is pipetted into 24 μl of activated enzyme (final concentration e.g. 1 nM) in reaction buffer (50 mM Tris/HCl pH 7.5, 10 mM CaCl2, 150 mM NaCl, 0.05% Brij®-35) in a white 384-hole microtiter plate (MTP). The enzymatic reaction is started by adding the intramolecularly quenched Mca-Lys-Pro-Leu-Gly-Leu-Dpa(Dnp)-Ala-Arg-NH2 substrate (final concentration e.g. 5 μM; R&D Systems, ES-010), so as to result in a total test volume of 50 μl. The course of the MMP-16 reaction is measured by measuring the fluorescence intensity (excitation 320 nm, emission 410 nm) over a suitable period of time (e.g. over 120 min at a temperature of 32° C.).

T4 sequence (P51512 120-564 limits assumed): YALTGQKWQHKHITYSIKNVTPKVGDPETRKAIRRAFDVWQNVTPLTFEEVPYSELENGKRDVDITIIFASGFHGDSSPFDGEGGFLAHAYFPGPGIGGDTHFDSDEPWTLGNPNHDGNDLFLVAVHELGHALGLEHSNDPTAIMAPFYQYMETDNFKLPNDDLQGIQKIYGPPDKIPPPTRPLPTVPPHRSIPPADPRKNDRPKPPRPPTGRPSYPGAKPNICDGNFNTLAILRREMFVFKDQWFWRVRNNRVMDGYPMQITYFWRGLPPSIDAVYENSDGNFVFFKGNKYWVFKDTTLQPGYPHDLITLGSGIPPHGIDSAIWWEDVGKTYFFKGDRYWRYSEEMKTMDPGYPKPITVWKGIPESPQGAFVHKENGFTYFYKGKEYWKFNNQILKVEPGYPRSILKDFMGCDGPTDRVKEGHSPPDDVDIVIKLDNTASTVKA
T2 sequence (P09238 99-476): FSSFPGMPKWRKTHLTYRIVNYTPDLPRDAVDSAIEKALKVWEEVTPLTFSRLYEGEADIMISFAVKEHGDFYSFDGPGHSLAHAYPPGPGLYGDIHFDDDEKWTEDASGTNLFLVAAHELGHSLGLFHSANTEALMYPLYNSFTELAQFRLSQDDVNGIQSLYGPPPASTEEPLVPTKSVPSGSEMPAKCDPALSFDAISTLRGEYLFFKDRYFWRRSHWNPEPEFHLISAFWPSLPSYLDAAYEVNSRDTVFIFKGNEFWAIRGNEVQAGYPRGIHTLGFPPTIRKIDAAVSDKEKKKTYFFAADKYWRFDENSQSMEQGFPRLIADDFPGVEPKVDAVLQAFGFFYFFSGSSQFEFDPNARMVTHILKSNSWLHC

| IC50 [1] [µM] | IC50 [2] [µM] | IC50 [3] [µM] | IC50 [4] [µM] | SMILES |
| --- | --- | --- | --- | --- |
| > 40 | 28 | > 40 | > 40 | O=C(CC(CCn1nnc2ccccc2c1=O)C(=O)O)c1cc2cc(OCCc3ccccc3Cl)ccc2o1 (racemic) [Example 1, (+/−)-4-{5-[2-(2-Chlorophenyl)ethoxy]-1-benzofur-2-yl}-4-oxo-2-[2-(4-oxo-1,2,3-benzotriazin-3(4H)-yl)ethyl]butanoic acid] |
| > 40 | 16 | 2.2 | > 40 | O=C(CC(CCn1nnc2ccccc2c1=O)C(=O)O)c1cc2cc(OCCc3ccc(Cl)cc3)ccc2o1 (racemic) [Example 2, (+/−)-4-{5-[2-(4-Chlorophenyl)ethoxy]-1-benzofur-2-yl}-4-oxo-2-[2-(4-oxo-1,2,3-benzotriazin-3(4H)-yl)ethyl]butanoic acid] |
| > 40 | 34 | 13 | > 40 | O=C(CC(CCn1nnc2ccccc2c1=O)C(=O)O)c1cc2cc(OCC3CCOCC3)ccc2o1 (racemic) [Example 5, (+/−)-4-Oxo-2-[2-(4-oxo-1,2,3-benzotriazin-3(4H)-yl)ethyl]-4-[5-(tetrahydro-2H-pyran-4-ylmethoxy)-1-benzofur-2-yl]butanoic acid] |
| > 40 | 7 | 0.73 | > 40 | O=C(CC(CCn1nnc2ccccc2c1=O)C(=O)O)c1cc2cc(OCCC3CCOCC3)ccc2o1 (racemic) [Example 6, (+/−)-4-Oxo-2-[2-(4-oxo-1,2,3-benzotriazin-3(4H)-yl)ethyl]-4-{5-[2-(tetrahydro-2H-pyran-4-yl)ethoxy]-1-benzofur-2-yl}butanoic acid] |
| > 40 | 9.3 | 5 | > 40 | O=C(CC(CCn1nnc2ccccc2c1=O)C(=O)O)c1cc2cc(OCCC3CCCC3)ccc2o1 (racemic) [Example 7, (+/−)-4-[5-(2-Cyclopentylethoxy)-1-benzofur-2-yl]-4-oxo-2-[2-(4-oxo-1,2,3-benzotriazin-3(4H)-yl)ethyl]butanoic acid] |
| > 40 | > 40 | 22 | > 40 | O=C(CC(CCn1nnc2ccccc2c1=O)C(=O)O)c1cc2cc(OCC3CCCCC3)ccc2o1 (racemic) [Example 8, (+/−)-4-[5-(Cyclohexylmethoxy)-1-benzofur-2-yl]-4-oxo-2-[2-(4-oxo-1,2,3-benzotriazin-3(4H)-yl)ethyl]butanoic acid] |
| > 40 | > 40 | 5.1 | > 40 | CCCCCCCOc1ccc2oc(C(=O)CC(CCn3nnc4ccccc4c3=O)C(=O)O)cc2c1 (racemic) [Example 31, (+/−)-4-[5-(Heptyloxy)-1-benzofur-2-yl]-4-oxo-2-[2-(4-oxo-1,2,3-benzotriazin-3(4H)-yl)ethyl]butanoic acid] |
| > 40 | 29 | 5.2 | > 40 | O=C(CC(CCn1nnc2ccccc2c1=O)C(=O)O)c1cc2cc(OCCCc3ccccc3)ccc2o1 (racemic) [Example 37, (+/−)-4-Oxo-2-[2-(4-oxo-1,2,3-benzotriazin-3(4H)-yl)ethyl]-4-[5-(3-phenylpropoxy)-1-benzofur-2-yl]butanoic acid] |
| > 40 | 29 | 2.1 | > 40 | O=C(CC(CCn1nnc2ccccc2c1=O)C(=O)O)c1cc2cc(OCc3ccc(C(F)(F)F)cc3)ccc2o1 (racemic) [Example 44, (+/−)-4-Oxo-2-[2-(4-oxo-1,2,3-benzotriazin-3(4H)-yl)ethyl]-4-(5-{[4-(trifluoromethyl)benzyl]oxy}-1-benzofur-2-yl)butanoic acid] |
| > 40 | 20 | 4 | > 40 | O=C(CC(CCn1nnc2ccccc2c1=O)C(=O)O)c1cc2cc(OCc3cccc(Cl)c3)ccc2o1 (racemic) [Example 50, (+/−)-4-{5-[(3-Chlorobenzyl)oxy]-1-benzofur-2-yl}-4-oxo-2-[2-(4-oxo-1,2,3-benzotriazin-3(4H)-yl)ethyl]butanoic acid] |
| > 40 | 36 | 11 | > 40 | Cc1cccc(COc2ccc3oc(C(=O)CC(CCn4nnc5ccccc5c4=O)C(=O)O)cc3c2)c1 (racemic) [Example 51, (+/−)-4-{5-[(3-Methylbenzyl)oxy]-1-benzofur-2-yl}-4-oxo-2-[2-(4-oxo-1,2,3-benzotriazin-3(4H)-yl)ethyl]butanoic acid] |
| > 40 | > 40 | > 40 | > 40 | CCCOc1ccc2cc(C(=O)CC(CCn3nnc4ccccc4c3=O)C(=O)O)oc2c1 (racemic) [Example 58, (+/−)-4-Oxo-2-[2-(4-oxo-1,2,3-benzotriazin-3(4H)-yl)ethyl]-4-(6-propoxy-1-benzofur-2-yl)butanoic acid] |
| > 40 | > 40 | 30 | > 40 | O=C(CC(CCn1nnc2ccccc2c1=O)C(=O)O)c1cc2ccc(OCCCC3CCCCC3)cc2o1 (racemic) [Example 71, (+/−)-4-[6-(3-Cyclohexylpropoxy)-1-benzofur-2-yl]-4-oxo-2-[2-(4-oxo-1,2,3-benzotriazin-3(4H)-yl)ethyl]butanoic acid] |
| > 40 | > 40 | 4.7 | > 40 | O=C(CC(CCn1nnc2ccccc2c1=O)C(=O)O)c1cc2ccc(OCCc3ccccc3)cc2o1 (racemic) [Example 73, (+/−)-4-Oxo-2-[2-(4-oxo-1,2,3-benzotriazin-3(4H)-yl)ethyl]-4-[6-(2-phenylethoxy)-1-benzofur-2-yl]butanoic acid] |
| > 40 | 2.1 | 0.25 | 6.4 | O=C(CC(CCn1nnc2ccccc2c1=O)C(=O)O)c1coc2cc(OCCC3CCOCC3)ccc12 (racemic) [Example 74, (+/−)-4-Oxo-2-[2-(4-oxo-1,2,3-benzotriazin-3(4H)-yl)ethyl]-4-{6-[2-(tetrahydro-2H-pyran-4-yl)ethoxy]-1-benzofur-3-yl}butanoic acid] |

From patent US20170121315A1, “HETEROBICYCLICALLY SUBSTITUTED 4-OXOBUTANE ACID DERIVATIVES AND USE THEREOF” (priority 2014, published 2017)
